Earlier results, collected in US9492541B2, “Phenylepherine containing dosage form” (SOVEREIGN PHARMACEUTICALS, LLC, priority 2004, dated 2016).

Details: oral

period over which a single dose provides a therapeutically effective plasma concentration: 2.5 ± 0.7 h
Structure (SMILES): CNC[C@H](O)c1cccc(O)c1 [phenylepherine]
